Where “and” joins values, the source holds several entries; their conditions need not be identical. Equal values may be shown once.
Test system: CA1 region of hippocampal organotypic cultures
Experiment: Kainic acid-induced neuronal cell death (experimental status epilepticus), propidium iodide uptake in hippocampal organotypic cultures
Type: cell-based, rat
Experimental: A seizure-induced neuronal cell death in vitro experimental model of status epilepticus was provided as follows. The neuroprotective potential of (R)-3-hydroxybutyrate sodium salt (BHB) (0.3 mM, 1 mM and 3 mM) was assessed by propidium iodide uptake into hippocampal organotypic cultures administered 1 μM KA for 24 h to induce experimental status epilepticus. Neuronal cell death is already observed at 24 h subsequent to KA-application therefore, it was of no value to administer to the cultures at this time-point. Test compound was, therefore, added to the cultures before significant neuronal cell death occurred.
Hippocampal organotypic slice cultures were prepared according to the Gähwiler roller-tube method (Gähwiler B H (1981) and Gähwiler et al (1997)) from nine rat pups aged between […].
Rat pups were killed by cervical dislocation, their brains rapidly removed and placed in a Petri dish. The meninges were removed from the caudal section of the cortex and then the brain was located with the ventral surface uppermost. Two transverse cuts were made, the first, at the level of the cerebellum to remove the brainstem, and the second, at the level of the optic chiasm to remove the forebrain. The cerebellum, midbrain and hindbrain were lifted upwards from the surrounding cortical tissue leaving one hippocampus embedded within each cortical hemisphere. An incision was made down the midline to separate the two cortical hemispheres. To separate the hippocampus from the surrounding cortical tissue three incisions were made around the hippocampus and then it was rolled out from the underlying tissue. The isolated hippocampus was then placed in a drop of ice-cold Gey's balanced salt solution containing 0.5% D-glucose (GBSS+G). The procedure was then repeated to isolate the remaining hippocampus. The whole procedure was performed using a Swift dissecting microscope and took between 10-15 mins thereby minimizing tissue deterioration.
The hippocampi were transferred to a Mcllwain tissue chopper and sectioned into a series of 400 μm thick slices. After sectioning, the hippocampi were placed in ice-cold GBSS+G and the slices gently teased apart. The slices were washed once in GBSS+G and the integrity of the slices checked under a higher magnification. If the slices had any tears, an opaque appearance or the cell body layers were not easily visible, they were discarded. A healthy slice has a yellow-brown colouration without any blackening in the cell body regions.
To adhere the hippocampal slice to a coverslip (Agar Scientific, UK), 20 μl of chicken plasma was placed in the middle of the coverslip followed by a hippocampal slice. The plasma was spread thinly over the surface of the coverslip, to ensure the slice was well coated. Then, 30 μl of thrombin (75 units/ml activity) was placed over the slice and mixed thoroughly with the chicken plasma. The plasma-thrombin mixture was left for approximately 60 s until a clot of jelly-like consistency had formed. The coverslip was then placed in a test-tube (Nunclon, UK) which contained 750 μl of pre-warmed culture media (37° C.). Culture media consisted of 50% basal media Earles, 25% Hank's balanced salt solution, 25% heat inactivated horse serum, […] L-glutamine and 0.5% D-glucose. The test tubes were sealed with a screw top lid and placed in a custom made roller-drum (Medical School Workshop, University of Nottingham) at an angle of 5°, rotating at 10 revolutions per hour in a dry incubator at 37° C.
After 48 h in vitro, 500 μl of media was removed and the cultures were incubated in culture media containing a combination of anti-mitotics, which consisted of 5-fluorodeoxyuridine, cytosine-β-D-arabino-furanoside (ARA-C) and uridine each at a concentration of 1 μM. After a further 24 h, 500 μl of media was removed and replaced with 500 μl of new culture media containing no anti-mitotics. […]

C=C(C)[C@H]1CN[C@H](C(=O)O)[C@H]1CC(=O)O [KA, kainic acid, reference compound]
percentage propidium iodide uptake (mean) (KA 1 μM alone for 24 h, then washout, assessed at 7 d, n=12, control cultures 1.81): 6.97±2.03% and 6.97%
percentage propidium iodide uptake (mean) (KA 1 μM alone for 24 h, assessed at 24 h, n=12, control cultures 1.68): 8.89±1.78% and 8.89%

C[C@@H](O)CC(=O)[O-].[Na+] [KTX0101, sodium salt of (R)-3-hydroxybutyrate]
percentage propidium iodide uptake (mean) (KTX0101 0.3 mM added 30 mins after KA 1 μM, assessed at 24 h, n=12): 6.48%
percentage propidium iodide uptake (mean) (KTX0101 0.3 mM for 7 d following KA 1 μM for 24 h, assessed at 7 d, n=12): 1.54%
percentage propidium iodide uptake (mean) (KTX0101 0.3 mM for 7 d following KA 1 μM for 24 h, assessed at 7 d, n=12, listed as BHB): 1.54±0.33% and 1.54%
percentage propidium iodide uptake (mean) (KTX0101 1.0 mM added 30 mins after KA 1 μM, assessed at 24 h, n=13): 4.89%
percentage propidium iodide uptake (mean) (KTX0101 1.0 mM for 7 d following KA 1 μM for 24 h, assessed at 7 d, n=13): 1.05%
percentage propidium iodide uptake (mean) (KTX0101 1.0 mM for 7 d following KA 1 μM for 24 h, assessed at 7 d, n=13, listed as BHB): 1.05±0.29% and 1.05%
percentage propidium iodide uptake (mean) (KTX0101 3.0 mM added 30 mins after KA 1 μM, assessed at 24 h, n=13): 4.72%
percentage propidium iodide uptake (mean) (KTX0101 3.0 mM for 7 d following KA 1 μM for 24 h, assessed at 7 d, n=13): 1.25%
percentage propidium iodide uptake (mean) (KTX0101 3.0 mM for 7 d following KA 1 μM for 24 h, assessed at 7 d, n=13, listed as BHB): 1.25±0.21% and 1.25%
